What was measured:
[1] = system: normal cells; details: at therapeutic concentration, preliminary results; cited from earlier work
[2] = system: p53; details: EU-1 ALL cells, dose- and time-dependent; cited from earlier work
[3] = biological target: T1, MDM2 (Homo sapiens, UniProt Q00987); details: EU-1 ALL cells; cited from earlier work
[4] = system: EU-1 ALL; experiment: WST cytotoxicity assay in EU-1 leukemia cells; type: cell-based; details: read-out: IC50 (μM) EU-1 ALL
[5] = biological target: T1, MDM2; experiment: Western blot of MDM2 in EU-1 cells; type: cell-based
[6] = system: p53; experiment: Western blot of p53 in EU-1 cells; type: cell-based
[7] = system: cell lysate of EU-1 leukemia cells; experiment: Prodrug activation in non-denatured EU-1 cell lysate; type: in vitro ADME
[8] = Water solubility by an HPLC method; type: physicochemical; details: ratio of water solubilities

T1 sequence (Q00987 whole entry): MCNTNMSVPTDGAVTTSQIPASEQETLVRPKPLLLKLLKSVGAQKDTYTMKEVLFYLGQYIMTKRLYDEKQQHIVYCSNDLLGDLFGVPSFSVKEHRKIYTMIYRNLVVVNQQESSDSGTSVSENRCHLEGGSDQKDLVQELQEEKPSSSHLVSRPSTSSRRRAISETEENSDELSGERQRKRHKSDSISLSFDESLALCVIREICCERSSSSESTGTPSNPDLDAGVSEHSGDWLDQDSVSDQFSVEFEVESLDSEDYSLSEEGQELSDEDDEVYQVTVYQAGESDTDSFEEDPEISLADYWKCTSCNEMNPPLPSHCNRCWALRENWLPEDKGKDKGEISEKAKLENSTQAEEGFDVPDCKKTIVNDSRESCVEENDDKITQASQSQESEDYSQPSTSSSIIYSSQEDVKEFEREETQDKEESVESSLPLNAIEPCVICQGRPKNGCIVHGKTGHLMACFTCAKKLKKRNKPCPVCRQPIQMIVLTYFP

## O=C(CCl)Nc1cc(O)c2c(c1)C(=O)c1cccc(O)c1C2=O [BW-AQ-101]
[1]
  toxicity to normal cells: minimal or no toxicity
[2]
  effect on p53: induced activation of p53
[3]
  effect on MDM2: inhibited MDM2
[4]
  IC50: 0.83 µM

## O=C(CCl)Nc1cc(OCCO)c2c(c1)C(=O)c1cccc(OCCO)c1C2=O [BW-AQ-238]
[5]; 0.8 μM, 15-h time point
  cytoplasmic MDM2 level (Western blot): significantly down-regulated
[5]; 1 μM
  MDM2 level, time course (Western blot): Down-regulation of MDM2 could be detected after 4-h treatment
[6]; 0.8 μM, 15-h time point
  p53 level (Western blot): increased
[6]; 1 μM
  p53 level, time course (Western blot): elevated after 4 hours of treatment

## CC(C)[C@H](N)C(=O)OCCOc1cccc2c1C(=O)c1c(OCCOC(=O)[C@@H](N)C(C)C)cc(NC(=O)CCl)cc1C2=O.Cl [Compound 9c]
[7]
  time within which the ester bond was cleaved to give parent drug: ≤ 15 min

## Cl.N[C@@H](Cc1ccccc1)C(=O)OCCOc1cccc2c1C(=O)c1c(OCCOC(=O)[C@@H](N)Cc3ccccc3)cc(NC(=O)CCl)cc1C2=O [Compound 9f]
[8]
  fold greater solubility than parent drug BW-AQ-238: over 11000 fold
